This is an account of results in US9708665B2, “Spatial biomarker of disease and detection of spatial organization of cellular receptors” (The Regents of the University of California, priority 2009, dated 2017).

Data set [1] concerns MDA-MB-231 cells. Nature of the data set: Trypan blue staining and cell counting (cell viability) under ROCK inhibitor treatment. Type of data set: cell-based, human. The note with it: 2 hrs at 37° C., 1-50 μM. On the procedure:
ROCK Inhibition. Cells were detached from cell culture flasks using trypsin-EDTA and incubated at 37° C. for 2 hrs in media containing ROCK inhibitor Y-27632 (Sigma-Aldrich, Inc.) at concentrations ranging from 1-50 μM. […] Cells were cultured in drugged media for one hr on well plates containing Alexa Fluor 647-labeled ephrin-A1 functionalized supported bilayers. Cells were fixed, stained and imaged with epifluorescence microscopy as described above.

The subject of data set [2] is MDA-MB-231 cells. The data set is described as follows: ROCK inhibition: EphA2-ephrin-A1 radial transport on ephrin-A1 functionalized supported bilayers. The conditions noted are these: inhibitor 1 to 50 μM, normalized to untreated samples. Type of data set: cell-based, human. The method, then:
Radial Transport Analysis. Bright field microscopy was used to determine the area occupied by each cell. The corresponding areas in the fluorescence channel were then analyzed using the Radial Profile plugin from ImageJ, yielding a plot of normalized fluorescence intensities versus radial distance from the cell center. Plots were then normalized for cell size and averaged. Least squares analysis was then performed on the average normalized radial distribution using Origin 7.0 (OriginLab, Northampton, Mass.), and the slope of the calculated line was used as a score for propensity to radially transport ephrin-A1. ROCK Inhibition. Cells were detached from cell culture flasks using trypsin-EDTA and incubated at 37° C. for 2 hrs in media containing ROCK inhibitor Y-27632 (Sigma-Aldrich, Inc.) at concentrations ranging from 1-50 μM. […] Cells were cultured in drugged media for one hr on well plates containing Alexa Fluor 647-labeled ephrin-A1 functionalized supported bilayers. Cells were fixed, stained and imaged with epifluorescence microscopy as described above.

Data set [3] concerns MDA-MB-231 cells. The conditions noted are these: binary mixture with ephrin-A1, 1 hr after plating.
Description: Surface Functionalization. After lipid bilayer deposition, substrates were incubated for 45 min with a 0.01% bovine serum albumin (BSA; Sigma-Aldrich, Inc.) solution to minimize non-specific protein adsorption. The supported membranes were then incubated with a 17 nM solution of streptavidin (Fisher Scientific, Pittsburgh, Pa.) for 45 minutes. For experiments that quantify protein surface density, streptavidin conjugated to Alexa Fluor 488 (Invitrogen Corp.) was substituted for the unlabeled protein. The supported membrane was then thoroughly rinsed and substrates were incubated for 45 min with a 50 nM solution of ephrin-A1 (R&D Systems, Minneapolis, Minn.), which had been biotinylated (Fisher Scientific) and conjugated to Alexa Fluor 594 or Alexa Fluor 647 (both from Invitrogen Corp.).
Optical Microscopy. We used Nikon Eclipse TE2000-E and TE300 inverted microscopes with mercury arc lamps for epifluorescence illumination and 12 V, 100 W halogen lamps for bright field illumination. Total internal reflection fluorescence (TIRF) illumination was provided using a krypton/argon ion laser for 647 nm excitation, and an argon ion laser (Stabilite 2018 and Model 177 respectively, both from Spectra-Physics, Mountain View, Calif.) for 488 nm excitation. […]

“Also recorded” adds a separate entry of the source.

As for `C[C@@H](N)[C@H]1CC[C@H](C(=O)Nc2ccncc2)CC1` [Y-27632], in the data set with MDA-MB-231 cells [1], the “cell viability (Trypan blue staining and cell counting)” value is on record as “no adverse effects”. In the data set with MDA-MB-231 cells [2], the “Eph-ephrin radial transport (capacity to transport EphA2-ephrin-A1 complexes to the center of the cell-supported membrane junction)” value is on record as “dose-dependent decrease; also recorded: dosage-dependent decrease”.
On to “[Arg-Gly-Asp-d-Phe-Lys(Biotin-PEG-PEG)] [cyclic RGD peptide]”, for which, in the data set on MDA-MB-231 cells [3], the “EphA2 organization with increasing RGD peptide density” value is recorded as “no change in EphA2 organization” and the “cell-supported membrane contact area (RICM) with increasing RGD peptide density” value is “progressively larger”.
